The subject of data set [1] is exonuclease deficient variant of the Pol6 polymerase. The data set is described as follows: Displacement assay of single, double, triple and quadruple nucleotide substrates (Example 3). The class given is biochemical. The source says: B. Assay protocol: The assay is a displacement assay using an exonuclease deficient variant of the Pol6 polymerase as described in Example 2, wherein polymerase activity is followed by fluorometrically monitoring the change in FRET between the Cy5 and BHQ labels as the polymerase incorporates the substrates in the DNA extension reaction.
Briefly, an assay solution containing the Pol6 polymerase, the 5′-Cy5-labelled displacement DNA template of SEQ ID NO: 124, and the 3′-BHQ-labelled quencher primer of SEQ ID NO: 124 in 75 mM potassium glutamate (“K-Glu”) is prepared in the absence of the substrate or Mg^2+ ion. A substrate solution is prepared containing either the multi-nucleotide compound to be assayed (i.e., “Y-Tag,” “W-Tag,” or “Q-Tag”), the non-tagged dT6P (“Hexa-PO4), or the tagged single nucleotide substrate, dA6P-dT30-C3 (”Full Tag“) of compound (3d). Also included in the substrate solution are the other three nucleotide-hexaphosphate (”dN6P″) substrates required for polymerase synthesis of a strand complementary to the DNA template (i.e., dA6P, dC6P, dG6P). This substrate solution is added to the polymerase solution. Assays are carried out for each of the test substrates at the following initial concentrations: 0.25 μM, 0.5 μM, 1.0 μM, 2.0 μM, 4.0 μM, and 8.0 μM. Additional K-Glu is added to bring the total K-Glu concentration in the mixture up to 300 mM. The polymerase reaction is then initiated by addition of MgCl2. Final concentrations in the assay reaction mixture are: 100 nM Pol6 enzyme, 50 nM Cy5 displacement DNA template, 40 μM each of other dN6P substrates, 300 mM K-Glu, 25 mM HEPES, 0.2 mM EDTA, 0.05% Triton X-100, 5 mM TCEP, 25 μg/mL BSA, 5 mM MgCl2, pH 7.5.

Data set [2] deals with α-HL-Pol6 nanopore-polymerase conjugate. It is filed as biochemical.

As for `Cc1cn([C@H]2C[C@H](O)[C@@H](COP(=O)(O)OP(=O)(O)OP(=O)(O)OP(=O)(O)OP(=O)(O)OP(=O)(O)O)O2)c(=O)[nH]c1=O` [dT6P], the Rate in data set [1] (Initial Conc. Tag 0.25 μM) was 0.57 Bases/sec; in data set [1] (Initial Conc. Tag 0.5 μM) it was 2.87 Bases/sec; in data set [1] (Initial Conc. Tag 1.0 μM), 3.48 Bases/sec; in data set [1] (Initial Conc. Tag 2.0 μM), 3.89 Bases/sec; in data set [1] (Initial Conc. Tag 4.0 μM), 4.48 Bases/sec; in data set [1] (Initial Conc. Tag 8.0 μM) it was 4.24 Bases/sec.
For “(dA6P)2-dT5-(BHEB)-dT14-C3: two dA6P via doubler-linker on tag SEQ ID NO: 109 (DNA ttttttttttttttttttt; two dA6P via doubler linker; BHEB; C3; (5)..(6) bis-hydroxyethylbenzene residue between nucleotide residues 5 and 6; (19)..(19) T-propanol)”, the blocking current level in data set [2] was 0.88+/−0.03.
For “(dC6P)2-dT20-C3: two dC6P via doubler-linker on tag SEQ ID NO: 105 (DNA tttttttttttttttttttt; two dC6P via doubler linker; C3; (20)..(20) T-propanol)”, the blocking current level in data set [2] is recorded as 0.76+/−0.04.
Take “(dG6P)2-dT6-(Tmp)6-dT8-C3: two dG6P via doubler-linker on tag SEQ ID NO: 107 (DNA TTTTTTTTTTTTTT; two dG6P via doubler linker; Tmp; C3; (6)..(7) 6 thymidine methylphosphonate residues between nucleotide residues 6 and 7; (14)..(14) T-propanol)”: the blocking current level in data set [2] was 0.38+/−0.08.
Same read-out and setting: the value for “(dT6P)2-dT4-(N3CET)3-dT13-C3: two dT6P via doubler-linker on tag SEQ ID NO: 106 (DNA TTTTTTTTTTTTTTTTT; chemistry not fully specified)” was 0.62+/−0.05.

For the origin of these results see patent publication US20190241952A1, “TAGGED MULTI-N[…] FOR NUCLEIC ACID SEQUENCING” (Roche Sequencing Solutions, Inc., priority 2016, published 2019).
